Experiments:
[1] = Stability of 3% hydrogen peroxide solutions with stabilizing agents, heated at 100° C. for 24 hours, KMnO4 titration (Example 1); assay type: physicochemical; details: 3% H2O2, phosphate buffer pH 6.5, 100° C. 24 hours vs 25° C.
Method: 3% hydrogen peroxide solutions containing three different stabilizing agents were formulated in phosphate buffer at pH 6.5. 10 ml samples were heated in HCl-cleaned test tubes at 100° C. for 24 hours to simulate a two year shelf life. Then a 200 microliter aliquot was added to 40 ml of a 2.75% H2SO4 solution and titrated with 0.01N KMnO4.

[2] = Stability of 100 ppm H2O2 at various pHs, heated at 100° C. for 24 hours, KMnO4 titration (Example 3); assay type: physicochemical; details: 60 ppm Dequest 2060 (control); 100 ppm H2O2, pH 6.5; 100° C. 24 hours vs RT
Method: The effectiveness of 50 ppm Laponite® XLG to stabilize 100 ppm H2O2 at various pH levels was evaluated.
50 ppm Laponite® XLG was formulated in a phosphate buffer (0.8655% NaCl, 0.0622% sodium phosphate dibasic, 0.0072% sodium phosphate monobasic monohydrate), along with 100 ppm hydrogen peroxide (from a 30% unstabilized solution). 100 mL samples were then adjusted to pH levels of 6.5, 7.0 and 7.5, respectively. 10 mL of each sample was then placed in a test tube, sealed with a screw cap, and heated to 100° C. for 24 hours. After heating, 5 mL of each sample was titrated with 0.002% KMnO4 and compared to the unheated sample to obtain % stability. 60 ppm of Dequest® 2060 at pH 6.5 was used as a control.

| % Stability of H2O2 ([1]; stabilizer 180 ppm) | % stability [2] | SMILES | % Stability of H2O2 ([1]; stabilizer 500 ppm) |
| --- | --- | --- | --- |
| 98.2% | 92.9% | O=P(O)(O)CN(CCN(CP(=O)(O)O)CP(=O)(O)O)CCN(CP(=O)(O)O)CP(=O)(O)O [Dequest ® 2060] |  |
|  |  | O=C(O)CN(CCN(CC(=O)O)CC(=O)O)CC(=O)O [EDTA] | 24.8% |
